Experimental data taken from patent US8642618B2, “Carbostyril derivatives including cilostazol for treating fatty liver” (Otsuka Pharmaceutical Co., Ltd., priority 2007, dated 2014).

Test system: Fisher 344 rats fed a choline-deficiented, L-amino acid-defined (CDAA) diet (animal model for fatty liver)
Experiment: CDAA diet rat model for fatty liver: liver staining for lipid droplets and serum triglyceride
Assay type: in vivo
Procedure: Fisher 344 rats were fed only a general diet or a choline-deficiented, L-amino acid-defined (CDAA) diet to prepare a control group and a CDAA group as an animal model for fatty liver, respectively. Three medicament-treated groups were prepared by administering the following three medicaments to the CDAA groups every day. (Aspirin and ticlopidine are medicaments having the same platelet aggregation inhibitory action as cilostazol.)
In addition, the amount of triglyceride in the liver as well as the serum level of triglyceride in those rats were measured.

SMILES: O=C1CCc2cc(OCCCCc3nnnn3C3CCCCC3)ccc2N1 [cilostazol, 6-[4-(1-cyclohexyl-1H-tetrazol-5-yl)butoxy]-3,4-dihydrocarbostyril]
- lipid droplet of liver (Hematoxylin-eosin staining and Masson staining) (CDAA diet + 6 mg/kg every day for 6 weeks, compared with CDAA group without cilostazol and with aspirin (5 mg/kg) / ticlopidine (10 mg/kg) groups, FIG. 1-9): markedly less
- serum level of triglyceride (CDAA diet + 6 mg/kg every day, 6 weeks after start of administration, compared with control group and other medicaments-treated groups, FIG. 10): significantly lower
